{
  "source": "ChEMBL document CHEMBL5532637",
  "about": "“Antimicrobial activity of natural and semi-synthetic carbazole alkaloids” (Eur J Med Chem, 2023)",
  "key": {"Staphylococcus aureus [1]": {"tested_on": "Staphylococcus aureus", "test": "Antibacterial activity against Staphylococcus aureus assessed as inhibition of bacterial growth", "format": "functional, organism-based"}, "Bacillus subtilis [2]": {"tested_on": "Bacillus subtilis", "test": "Antibacterial activity against Bacillus subtilis assessed as inhibition of bacterial growth", "format": "functional"}, "[3]": {"tested_on": "Staphylococcus epidermidis", "test": "Antibacterial activity against Staphylococcus epidermidis assessed as zone of inhibition at 25 ug/ml", "format": "functional", "conditions": "read-out: IZ"}, "Escherichia coli": {"tested_on": "Escherichia coli", "test": "Antibacterial activity against Escherichia coli assessed as zone of inhibition at 25 ug/ml", "format": "functional", "conditions": "read-out: IZ"}, "Proteus vulgaris": {"tested_on": "Proteus vulgaris", "test": "Antibacterial activity against Proteus vulgaris assessed as zone of inhibition at 25 ug/ml", "format": "functional", "conditions": "read-out: IZ"}, "Candida tropicalis": {"tested_on": "Candida tropicalis", "test": "Antifungal activity against Candida tropicalis assessed as inhibition of fungal growth incubated for overnight by MTT based serial dilution method", "format": "functional"}, "Candida albicans": {"tested_on": "Candida albicans", "test": "Antifungal activity against Candida albicans assessed as inhibition of fungal growth incubated for overnight by MTT based serial dilution method", "format": "functional"}, "Aspergillus fumigatus [4]": {"tested_on": "Aspergillus fumigatus", "test": "Antifungal activity against Aspergillus fumigatus assessed as inhibition of fungal growth incubated for overnight by MTT based serial dilution method", "format": "functional"}, "Nakaseomyces glabratus": {"tested_on": "Nakaseomyces glabratus", "test": "Antifungal activity against Candida glabrata ATCC 90030 assessed as inhibition of fungal growth incubated for 24 hrs by microtiter plate reader assay", "format": "functional"}, "[5]": {"tested_on": "Mycobacterium tuberculosis", "test": "Antibacterial activity against Mycobacterium tuberculosis assessed as inhibition of bacterial growth", "format": "functional"}, "Pichia kudriavzevii": {"tested_on": "Pichia kudriavzevii", "test": "Antifungal activity against Candida krusei ATCC 6258 assessed as inhibition of fungal growth incubated for 24 hrs by microtiter plate reader assay", "format": "functional"}, "Saccharomyces cerevisiae": {"tested_on": "Saccharomyces cerevisiae", "test": "Antifungal activity against Saccharomyces cerevisiae ATCC 9763 assessed as inhibition of fungal growth incubated for 24 hrs by microtiter plate reader assay", "format": "functional"}, "Staphylococcus aureus [6]": {"tested_on": "Staphylococcus aureus", "test": "Antibacterial activity against Staphylococcus aureus assessed as inhibition of bacterial growth by broth dilution method", "format": "functional"}, "Cryptococcus neoformans [7]": {"tested_on": "Cryptococcus neoformans", "test": "Antifungal activity against Cryptococcus neoformans assessed as inhibition of fungal growth by serial dilution method", "format": "functional"}, "Aspergillus fumigatus [8]": {"tested_on": "Aspergillus fumigatus", "test": "Antifungal activity against Aspergillus fumigatus assessed as inhibition of fungal growth by serial dilution method", "format": "functional"}, "Nannizzia gypsea": {"tested_on": "Nannizzia gypsea", "test": "Antifungal activity against Microsporum gypseum assessed as inhibition of fungal growth by serial dilution method", "format": "functional"}, "[9]": {"tested_on": "Mycobacterium tuberculosis", "test": "Antibacterial activity against Mycobacterium tuberculosis H37Rv assessed as inhibition of bacterial growth by two-fold serial dilution method", "format": "functional"}, "[10]": {"test": "Cytotoxicity against green monkey Vero cells", "format": "toxicity, cell-based", "conditions": "green monkey (Chlorocebus sabaeus)"}, "Cryptococcus neoformans [11]": {"tested_on": "Cryptococcus neoformans", "test": "Antifungal activity against Cryptococcus neoformans […] assessed as inhibition of fungal growth incubated for 24 to 48 hrs by CLSI protocol based broth microdilution method", "format": "functional", "conditions": "time 24-48 hrs"}, "[12]": {"tested_on": "Cryptococcus deuterogattii", "test": "Antifungal activity against Cryptococcus gattii VGII WM178/08 assessed as inhibition of fungal growth incubated for 24 to 48 hrs by CLSI protocol based broth microdilution method", "format": "functional, Cryptococcus bacillisporus", "conditions": "time 24-48 hrs"}, "Mucor hiemalis": {"tested_on": "Mucor hiemalis", "test": "Antifungal activity against Mucor hiemalis DSM 2656 assessed as inhibition of fungal growth incubated for 24 hrs by serial dilution method", "format": "functional"}, "Staphylococcus aureus [13]": {"tested_on": "Staphylococcus aureus", "test": "Antibacterial activity against Staphylococcus aureus DSM 346 assessed as inhibition of bacterial growth incubated for 24 hrs by serial dilution method", "format": "functional"}, "Bacillus subtilis [14]": {"tested_on": "Bacillus subtilis", "test": "Antibacterial activity against Bacillus subtilis DSM 10 assessed as inhibition of bacterial growth incubated for 24 hrs by serial dilution method", "format": "functional"}, "Rhodotorula glutinis": {"tested_on": "Rhodotorula glutinis", "test": "Antifungal activity against Rhodotorula glutinis DSM 10134 assessed as inhibition of fungal growth incubated for 24 hrs by serial dilution method", "format": "functional"}, "[15]": {"tested_on": "Mycolicibacterium smegmatis", "test": "Antibacterial activity against Mycobacterium smegmatis DSM ATCC 700084 assessed as inhibition of bacterial growth incubated for 24 hrs by serial dilution method", "format": "functional"}, "[16]": {"tested_on": "Schizosaccharomyces pombe", "test": "Antifungal activity against Schizosaccharomyces pombe DSM 70572 assessed as inhibition of fungal growth incubated for 24 hrs by serial dilution method", "format": "functional"}, "Pseudomonas aeruginosa": {"tested_on": "Pseudomonas aeruginosa", "test": "Antibacterial activity against Pseudomonas aeruginosa assessed as zone of inhibition incubated for 24 hrs by disk diffusion method", "format": "functional"}, "Staphylococcus aureus [17]": {"tested_on": "Staphylococcus aureus", "test": "Antibacterial activity against Staphylococcus aureus assessed as zone of inhibition incubated for 24 hrs by disk diffusion method", "format": "functional"}, "Staphylococcus aureus [18]": {"tested_on": "Staphylococcus aureus", "test": "Antibacterial activity against methicillin-resistant Staphylococcus aureus assessed as inhibition of bacterial growth incubated for 24 hrs by two-fold serial dilution assay", "format": "functional"}, "Staphylococcus aureus [19]": {"tested_on": "Staphylococcus aureus", "test": "Antibacterial activity against methicillin-sensitive Staphylococcus aureus assessed as inhibition of bacterial growth incubated for 24 hrs by two-fold serial dilution assay", "format": "functional"}, "Pasteurella multocida": {"tested_on": "Pasteurella multocida", "test": "Antibacterial activity against Pasteurella multocida assessed as inhibition of bacterial growth by agar well diffusion method", "format": "functional"}},
  "data": [
    {"compound": "COC12C(=O)N(C)C(=O)C1(OC)c1c([nH]c3cc(Cl)ccc13)-c1[nH]c3cc(Cl)ccc3c12", "note": "(stereo not drawn)", "values": [
      {"measurement": "MIC", "setting": "Staphylococcus aureus [1]", "result": 3.1, "unit": "µg/mL"},
      {"measurement": "MIC", "setting": "Bacillus subtilis [2]", "result": 3.1, "unit": "µg/mL"}
    ]},
    {"compound": "Cc1ccc2[nH]c3c(c2c1)CC/C(=C\\c1ccc(Br)cc1)C3=O", "values": [
      {"measurement": "zone of inhibition at 25 µg/mL", "setting": "[3]", "result": 15, "unit": "mm"},
      {"measurement": "zone of inhibition at 25 µg/mL", "setting": "Escherichia coli", "result": 15, "unit": "mm"},
      {"measurement": "zone of inhibition at 25 µg/mL", "setting": "Proteus vulgaris", "result": 15, "unit": "mm"}
    ]},
    {"compound": "COCn1c2c(c3cccc(C)c31)Cc1cocc1C2", "values": [
      {"measurement": "MIC", "setting": "Candida tropicalis", "result": 7.81, "unit": "µg/mL"},
      {"measurement": "MIC", "setting": "Candida albicans", "result": 7.81, "unit": "µg/mL"},
      {"measurement": "MIC", "setting": "Aspergillus fumigatus [4]", "result": 7.81, "unit": "µg/mL"}
    ]},
    {"compound": "FC(F)(F)Oc1ccc2c3c([nH]c2c1)C(NCCOc1ccc(Cl)cc1)CCC3", "note": "(stereo not drawn)", "values": [
      {"measurement": "MIC50", "setting": "Nakaseomyces glabratus", "result": 5.3, "unit": "µM"}
    ]},
    {"compound": "Cc1cc2c([nH]c3ccc4c(c32)C=CC(C)(C)O4)c(-c2c(O)c(C)cc3c2[nH]c2ccc4c(c23)C=CC(C)(C)O4)c1O", "note": "[CLAUSENAWALLINE A]", "values": [
      {"measurement": "MIC", "setting": "[5]", "result": 12.5, "unit": "µg/mL"}
    ]},
    {"compound": "FC(F)(F)Oc1ccc2c3c([nH]c2c1)C(NCc1ccc(Br)cc1)CCC3", "note": "(stereo not drawn)", "values": [
      {"measurement": "MIC50", "setting": "Pichia kudriavzevii", "result": 4.7, "unit": "µM"},
      {"measurement": "MIC50", "setting": "Saccharomyces cerevisiae", "result": 1.5, "unit": "µM"}
    ]},
    {"compound": "COc1cc2c3c([nH]c2cc1C)C(=O)C=C(C)C3=O", "values": [
      {"measurement": "MIC", "setting": "Staphylococcus aureus [6]", "result": 50, "unit": "µg/mL"}
    ]},
    {"compound": "Cc1ccc2c(c1)c1c(n2CCCNCc2ccccc2)CCCC1", "values": [
      {"measurement": "MIC80", "setting": "Cryptococcus neoformans [7]", "result": 1, "unit": "µg/mL"},
      {"measurement": "MIC80", "setting": "Aspergillus fumigatus [8]", "result": 32, "unit": "µg/mL"},
      {"measurement": "MIC80", "setting": "Nannizzia gypsea", "result": 0.016, "unit": "µg/mL"}
    ]},
    {"compound": "COc1ccc2[nH]c3c(OCc4ccccc4)cc(C)cc3c2c1", "values": [
      {"measurement": "MIC90", "setting": "[9]", "result": 31.7, "unit": "µg/mL"},
      {"measurement": "IC50", "setting": "[10]", "result": "> 128", "unit": "µM"}
    ]},
    {"compound": "CC1=CC(=O)c2[nH]c3ccccc3c2C1=O", "note": "[MURRAYAQUINONE A]", "values": [
      {"measurement": "MIC", "setting": "Staphylococcus aureus [6]", "result": 50, "unit": "µg/mL"}
    ]},
    {"compound": "c1ccc2c(c1)[nH]c1ccccc12", "note": "[CARBAZOLE]", "values": [
      {"measurement": "MIC", "setting": "Cryptococcus neoformans [11]", "result": 160, "unit": "µg/mL"},
      {"measurement": "MIC", "setting": "[12]", "result": 160, "unit": "µg/mL"}
    ]},
    {"compound": "Clc1ccc2[nH]c3c(c2c1)CCCC31CCCn2ccnc21", "note": "(stereo not drawn)", "values": [
      {"measurement": "MIC", "setting": "Mucor hiemalis", "result": 53.2, "unit": "µM"},
      {"measurement": "MIC", "setting": "Staphylococcus aureus [13]", "result": 53.2, "unit": "µM"},
      {"measurement": "MIC", "setting": "Bacillus subtilis [14]", "result": 53.2, "unit": "µM"},
      {"measurement": "MIC", "setting": "Rhodotorula glutinis", "result": 53.2, "unit": "µM"},
      {"measurement": "MIC", "setting": "[15]", "result": 53.2, "unit": "µM"},
      {"measurement": "MIC", "setting": "[16]", "result": 53.2, "unit": "µM"}
    ]},
    {"compound": "CCOc1nc2c(c(-c3cccs3)c1C(N)=O)CCc1c-2[nH]c2ccc(Cl)cc12", "values": [
      {"measurement": "inhibition zone (IZ)", "setting": "Pseudomonas aeruginosa", "result": 2.1, "unit": "cm"},
      {"measurement": "inhibition zone (IZ)", "setting": "Staphylococcus aureus [17]", "result": 1.1, "unit": "cm"}
    ]},
    {"compound": "N#Cc1ccc2c(c1)[nH]c1c(-c3c[nH]c4ccc(C#N)cc34)ccc(-c3c[nH]c4ccc(C#N)cc34)c12", "values": [
      {"measurement": "MIC", "setting": "Staphylococcus aureus [18]", "result": 8, "unit": "µg/mL"},
      {"measurement": "MIC", "setting": "Staphylococcus aureus [19]", "result": 16, "unit": "µg/mL"}
    ]},
    {"compound": "Brc1ccc2[nH]c3c(c2c1)CCCC31CCCn2ccnc21", "note": "(stereo not drawn)", "values": [
      {"measurement": "MIC", "setting": "Mucor hiemalis", "result": 66.6, "unit": "µM"},
      {"measurement": "MIC", "setting": "Staphylococcus aureus [13]", "result": 66.6, "unit": "µM"},
      {"measurement": "MIC", "setting": "Bacillus subtilis [14]", "result": 66.6, "unit": "µM"},
      {"measurement": "MIC", "setting": "Rhodotorula glutinis", "result": 66.6, "unit": "µM"},
      {"measurement": "MIC", "setting": "[15]", "result": 66.6, "unit": "µM"},
      {"measurement": "MIC", "setting": "[16]", "result": 66.6, "unit": "µM"}
    ]},
    {"compound": "C/C(=N/Nc1ccc([N+](=O)[O-])cc1[N+](=O)[O-])C1CCCc2c1n(C)c1c([N+](=O)[O-])cc([N+](=O)[O-])cc21", "note": "(stereo not drawn)", "values": [
      {"measurement": "MIC", "setting": "Pasteurella multocida", "result": 4.5, "unit": "µg/mL"}
    ]}
  ]
}
